We go through four compounds from patent US20230135108A1, “C[…] COMPOUNDS AND METHODS OF MAKING SAME” (Canopy Growth Corporation, priority 2020, published 2023).

Structures can show the parent of a compound that is named as a salt.

Data set [1] in a line: Simulated gastric fluid (SGF) assay. Conditions: pH 1.2-1.5, pepsin, 37° C.; for half-life at 10 µM: simulated gastric fluid with pepsin, read-out: half-life in a gastric environment (SGF). Type of data set: in vitro ADME. As for the experimental part: In a microcentrifuge tube, 626.5 μL of a solution containing 1.1× assay buffer (37.6 mM NaCI, pH 1.2-1.5) was diluted with 70 μL of a 10× pepsin solution (80,000 U/mL in milliQ water). […] The sample was incubated under the same conditions. At the specified time points, 150 μL aliquots of the sample were transferred to microcentrifuge tubes containing 24 μL of quenching solution (0.5 M NaHCO3). After vortexing for 5 seconds, 348 μL of protein precipitation solution containing an internal standard (25 μM Glyburide, ACN) was added. The tube was vortexed again for 20 seconds and stored in ice. Finally, the tubes were centrifuged at 5,000×g and 4° C. for 15 min. The percentage remaining CBDA or CBDA-arginine salt, respectively, compared to time zero, was quantified in the supernatant by HPLC/LC-MS or LC-MS/MS.

Data set [2] can be described thus: Solubility in water (HPLC of filtrate). Type of data set: physicochemical. To be noted: 50 mg in 8 mL deionized water, 0.45 micron filter, FIG. 7. As for the experimental part:
In a test tube, 50 mg of the respective cannabinoid salt compound was suspended in 8 mL of deionized water and vortexed. The solution was filtered with a syringe equipped with 0.45 micron filter. HPLC was used to determine the quantity of dissolved cannabinoids.

Regarding `C=C(C)[C@@H]1CCC(C)=C[C@H]1c1c(O)cc(CCCCC)c(C(=O)O)c1O` [CBDA, cannabidiolic acid], the half-life at 10 µM in data set [1] is approximately 19.7 min.
Consider `CCCCCc1cc2c(c(O)c1C(=O)O)[C@@H]1C=C(C)CC[C@H]1C(C)(C)O2` [THCA, tetrahydrocannabinolic acid], for which, in data set [2], the solubility in water entry is listed as “virtually insoluble”. For the same compound, the “half-life in a gastric environment (SGF)” value in data set [1] is “about 12.2 min”.
For the compound `C1CCC(NC2CCCCC2)CC1.CCCCCc1cc2c(c(O)c1C(=O)O)C1C=C(C)CCC1C(C)(C)O2` (centres unmarked) [THCA-DCHA salt], the solubility in water entry in data set [2] is on record as “virtually insoluble”.
`CCCCCc1cc2c(c(O)c1C(=O)O)[C@@H]1C=C(C)CC[C@H]1C(C)(C)O2` [THCA-arginine salt]: in data set [1], the half-life at 10 µM was approximately 14.4 min.

A word on the half-life: it is the time in which the quantity being followed falls by half.
